The values that follow come from ChEMBL document CHEMBL3875222, “Benzenesulfonamide bearing imidazothiadiazole and thiazolotriazole scaffolds as potent tumor associated human carbonic anhydrase IX and XII inhibitors” (Bioorg Med Chem, 2017).

One assay has as its target Carbonic anhydrase 1 (Homo sapiens, UniProt P00915). In words: Inhibition of recombinant human erythrocyte cytosolic carbonic anhydrase 1 by stopped-flow CO2 hydration assay.
In a further assay the target is Carbonic anhydrase 2 (Homo sapiens, UniProt P00918). The experiment in a line: Inhibition of recombinant human erythrocyte cytosolic carbonic anhydrase 2 by stopped-flow CO2 hydration assay.
A further assay addresses Carbonic anhydrase 9 (Homo sapiens, UniProt Q16790). The experiment in a line: Inhibition of recombinant human membrane bound carbonic anhydrase 9 by stopped-flow CO2 hydration assay.
A further assay concerns the target Carbonic anhydrase 12 (Homo sapiens, UniProt O43570). The experiment in a line: Inhibition of recombinant human membrane bound carbonic anhydrase 12 by stopped-flow CO2 hydration assay.

SMILES strings stand for the structures.

Sequence of Carbonic anhydrase 1 (P00915 whole entry): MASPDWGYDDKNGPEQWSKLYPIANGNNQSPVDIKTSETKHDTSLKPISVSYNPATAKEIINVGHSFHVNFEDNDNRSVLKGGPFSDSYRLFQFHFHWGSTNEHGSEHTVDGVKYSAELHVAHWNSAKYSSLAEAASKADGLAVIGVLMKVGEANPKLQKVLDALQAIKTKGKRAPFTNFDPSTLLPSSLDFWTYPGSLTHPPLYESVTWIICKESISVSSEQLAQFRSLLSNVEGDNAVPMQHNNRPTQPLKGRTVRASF
Sequence of Carbonic anhydrase 12 (O43570 whole entry): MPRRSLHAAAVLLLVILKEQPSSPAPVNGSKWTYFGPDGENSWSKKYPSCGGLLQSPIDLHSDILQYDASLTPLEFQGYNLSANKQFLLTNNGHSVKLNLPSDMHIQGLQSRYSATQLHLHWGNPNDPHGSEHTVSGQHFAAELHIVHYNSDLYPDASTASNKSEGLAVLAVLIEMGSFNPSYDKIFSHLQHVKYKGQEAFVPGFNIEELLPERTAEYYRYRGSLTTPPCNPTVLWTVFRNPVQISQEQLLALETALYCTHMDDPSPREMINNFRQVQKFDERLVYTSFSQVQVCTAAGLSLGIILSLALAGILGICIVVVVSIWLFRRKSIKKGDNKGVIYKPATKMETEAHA

Turning to `Cc1ccc(-c2csc3nc(-c4ccc(S(N)(=O)=O)cc4)nn23)cc1`, the Ki was determined as 79.8 nM on Carbonic anhydrase 1, 19.5 nM at Carbonic anhydrase 2, 85.1 nM at Carbonic anhydrase 9 and 23.8 nM on Carbonic anhydrase 12.
With `NS(=O)(=O)c1ccc(-c2nn3cc(-c4cccc(Br)c4)nc3s2)cc1`, the Ki at Carbonic anhydrase 1 is 276 nM; at Carbonic anhydrase 2 it was 67.6 nM; on Carbonic anhydrase 9 it was 251 nM; on Carbonic anhydrase 12, 75.6 nM.
In the same order, the values of `NS(=O)(=O)c1ccc(-c2nn3cc(-c4ccc(F)cc4)nc3s2)cc1` are 218 nM, 56.2 nM, 136 nM and 79.4 nM.
The matching figures for `NS(=O)(=O)c1ccc(-c2nc3scc(-c4ccc(Cl)cc4)n3n2)cc1`: 943 nM, 529 nM, 1680 nM and 26.7 nM.
The matching figures for `NS(=O)(=O)c1ccc(-c2nn3cc(-c4ccc(-c5ccccc5)cc4)nc3s2)cc1`: 35.5 nM, 368 nM, 143 nM and 62.1 nM.
`NS(=O)(=O)c1ccc(-c2nc3scc(-c4ccccc4)n3n2)cc1`: the Ki at Carbonic anhydrase 1 worked out at 17.9 nM; at Carbonic anhydrase 2, 18.1 nM; on Carbonic anhydrase 9, 262 nM; on Carbonic anhydrase 12 it was 147 nM.
As for `COc1ccc(-c2cn3nc(-c4ccc(S(N)(=O)=O)cc4)sc3n2)cc1`, the inhibition constant (Ki) on Carbonic anhydrase 1 came to 849 nM; on Carbonic anhydrase 2, 830 nM; on Carbonic anhydrase 9, 2830 nM; on Carbonic anhydrase 12, 3.8 nM.
In the same order, the values of `NS(=O)(=O)c1ccc(-c2nc3scc(-c4ccc(F)cc4)n3n2)cc1` are 662 nM, 301 nM, 237 nM and 359 nM.
`NS(=O)(=O)c1ccc(-c2nn3cc(-c4cccc([N+](=O)[O-])c4)nc3s2)cc1`: the inhibition constant Ki at Carbonic anhydrase 1 came out at 510 nM; on Carbonic anhydrase 2 it was 274 nM; at Carbonic anhydrase 9 it was 172 nM; on Carbonic anhydrase 12, 50.4 nM.
In the same order, the values of `NS(=O)(=O)c1ccc(-c2nc3scc(-c4ccc(Br)cc4)n3n2)cc1` are 9700 nM, 6350 nM, 172 nM and 302 nM.
The matching figures for `NS(=O)(=O)c1ccc(-c2nc3scc(-c4cccc([N+](=O)[O-])c4)n3n2)cc1`: 64.3 nM, 13.2 nM, 203 nM and 362 nM.
In the same order, the values of `NS(=O)(=O)c1ccc(-c2nn3cc(-c4ccc(Cl)cc4)nc3s2)cc1` are 500 nM, 244 nM, 1210 nM and 80.1 nM.
For `NS(=O)(=O)c1ccc(-c2nn3cc(-c4ccc([N+](=O)[O-])cc4)nc3s2)cc1`, the Ki on Carbonic anhydrase 1 came out at 287 nM; at Carbonic anhydrase 2, 369 nM; at Carbonic anhydrase 9 it was 306 nM; at Carbonic anhydrase 12, 48.1 nM.
As for `NS(=O)(=O)c1ccc(-c2nc3scc(-c4ccc([N+](=O)[O-])cc4)n3n2)cc1`, the Ki at Carbonic anhydrase 1 was 9330 nM; at Carbonic anhydrase 2, 3860 nM; on Carbonic anhydrase 9, 189 nM; on Carbonic anhydrase 12 it was 35.1 nM.
In the same order, the values of `NS(=O)(=O)c1ccc(-c2nn3cc(-c4ccc(Br)cc4)nc3s2)cc1` are 624 nM, 681 nM, 918 nM and 84.8 nM.
With `COc1ccc(-c2csc3nc(-c4ccc(S(N)(=O)=O)cc4)nn23)cc1`, the Ki was determined as 83.3 nM on Carbonic anhydrase 1, 15.1 nM on Carbonic anhydrase 2, 147 nM on Carbonic anhydrase 9 and 22.3 nM on Carbonic anhydrase 12.
Consider `NS(=O)(=O)c1ccc(-c2nc3scc(-c4cccc(Br)c4)n3n2)cc1`, for which the Ki came out at 9510 nM on Carbonic anhydrase 1, 2570 nM on Carbonic anhydrase 2, 1090 nM on Carbonic anhydrase 9 and 41.4 nM on Carbonic anhydrase 12.
Turning to `Cc1ccc(-c2cn3nc(-c4ccc(S(N)(=O)=O)cc4)sc3n2)cc1`, the Ki on Carbonic anhydrase 1 worked out at 243 nM; on Carbonic anhydrase 2 it was 240 nM; on Carbonic anhydrase 9 it was 275 nM; at Carbonic anhydrase 12 it was 3.3 nM.
Take `NS(=O)(=O)c1ccc(-c2nn3cc(-c4ccccc4)nc3s2)cc1`: the inhibition constant Ki turned out to be 318 nM on Carbonic anhydrase 1, 7.3 nM at Carbonic anhydrase 2, 208 nM at Carbonic anhydrase 9 and 4.1 nM at Carbonic anhydrase 12.
As for `NS(=O)(=O)c1ccc(-c2nc3scc(-c4ccc(-c5ccccc5)cc4)n3n2)cc1`, the Ki at Carbonic anhydrase 1 was found to be 97.5 nM; at Carbonic anhydrase 2, 22.3 nM; on Carbonic anhydrase 9 it was 133 nM; at Carbonic anhydrase 12, 297 nM.
